The test system of one experiment is indole odor. Put plainly: Sensory evaluation of unpleasant odor suppression ability (indole), panel of 20 persons. It counts as in vivo, human. The following applies: for Indole strength: average rating of 20 persons, scale 0 to 10, unpleasant odor alone rated 8, 10 μL indole diluted 100-fold plus 1 μL test substance, 1 hour at room temperature. Here is the method:
(§1) The unpleasant odor suppression ability of test substances having activity to inhibit receptor action was confirmed by sensory evaluation. A cotton ball on which 10 μL of skatole or indole diluted 100-fold with triethyl citrate as an unpleasant odor and 1 μL of a test substance were dropped was put into a plastic bottle (OZO-40 manufactured by Takemoto Yohki Co., Ltd.). The bottle was allowed to stand at room temperature for 1 hour to sufficiently volatilize odor molecules therein. The sensory evaluation test was conducted by a panel consisting of 20 persons, who made evaluation as follows: the odor strength in the case where the unpleasant odor was dropped solely was rated as 8, and the unpleasant odor strength in the case where the test substance was mixed was rated as from 0 (the unpleasant odor is not smelled) to 10 (the unpleasant odor is smelled very strongly). The average value was calculated from obtained numerical values.

Experiment [1] has as its target T1, olfactory receptor OR2L3 (Homo sapiens, UniProt Q8NG85).
T1 construct: N-terminal 20 amino acid residues of bovine rhodopsin (Rho tag); expressed in transfected cells; host or cells: HEK293T cells, transient lipofection with the pME18S expression vector, an RTP1S vector and the luciferase reporter vectors
T1 sequence (Q8NG85 1-312): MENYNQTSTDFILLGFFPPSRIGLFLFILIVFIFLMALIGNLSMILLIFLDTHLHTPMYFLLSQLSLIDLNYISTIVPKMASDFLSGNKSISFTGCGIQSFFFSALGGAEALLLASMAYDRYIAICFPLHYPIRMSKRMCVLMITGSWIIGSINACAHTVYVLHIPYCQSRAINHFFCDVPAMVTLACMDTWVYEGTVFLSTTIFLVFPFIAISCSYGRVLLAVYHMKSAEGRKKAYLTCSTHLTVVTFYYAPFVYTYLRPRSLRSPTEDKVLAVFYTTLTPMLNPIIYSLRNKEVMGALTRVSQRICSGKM
Description: Luciferase reporter gene assay: effect of suppressing the response of OR2L3 to unpleasant odor-causing substance. The following applies: for Effect of suppressing the response of OR2L3 to indole: test substance mixed with indole, FIGS. 10 to 12; for Effect of suppressing the response of OR2L3 to skatole: test substance mixed with skatole, ratio of Fold Increase value, FIGS. 6 to 9. It counts as cell-based. Here is the method: (§2) 0.05 μg of the human olfactory receptor gene expression vector, 0.01 μg of an RTP1S vector, 0.01 μg of a firefly luciferase vector pGL4.29 containing a cAMP-responsive sequence promoter (Promega), and 0.005 μg of a Renilla luciferase vector pGL4.74 containing a thymidine kinase promoter (Promega) were dissolved in 10 μL of Opti-MEM I (gibco) to obtain a gene solution (for one well). 100 μL of HEK293T cells were seeded in each well of a 96-well plate (Biocoat manufactured by Corning) so as to reach confluency after 24 hours. According to the directions for use of Lipofectamine 3000, by the lipofection method, the gene solution was added to each well to perform gene transfer to cells, and culturing was performed under 5% carbon dioxide atmosphere at 37° C. for 24 hours.
After removing the culture medium, 50 μL of CD293 medium (gibco) (20 μM L-glutamine added) including measured concentration of an aroma compound as a sample was added to each well, and stimulation was performed for 3 hours. After that, the luciferase activity was measured according to the directions for use of Dual-Luciferase Reporter Assay System (Promega). The response strength of the olfactory receptor was expressed by the Fold Increase value, which is obtained by dividing the luciferase activity generated by stimulation of the aroma compound by the luciferase activity generated in the test system not including the aroma compound. […]
With respect to unpleasant odor masking agents (group of candidate substances) including Group A shown in Table 1, the effects of suppressing the response of OR2L3 that strongly responded to unpleasant odors were measured by means of luciferase reporter gene assay.
In luciferase reporter gene assay, skatole and Guava coeur (Ethyl 3-mercapto-2-methylbutyrate) were used by being mixed with a sample. The Fold Increase value in the test in which Guava coeur was not mixed was regarded as 1, and the ratio of the Fold Increase value in the test in which Guava coeur was mixed was obtained.
Guava coeur in the evaluation of the effect of suppressing the response of OR2L3 was replaced by Dextramber® (1-(2,2,6-trimethylcyclohexyl) hexan-3-ol, registered trademark), and the test was conducted in the same manner. […] Similarly, Guava coeur was replaced by Hindinol® (2-methyl-4-(2,2,3-trimethyl-3-cyclopentenyl)-2-buten-1-ol, registered trademark) and the test was conducted.
Regarding the unpleasant odor in the evaluation of the effect of suppressing the response of OR2L3, skatole was replaced by indole, and the test was conducted in the same manner. […]
For orientation: Reporter assays use an easily measured gene product as a stand-in for the process of interest.

In a further experiment the test system is skatole odor. Put plainly: Sensory evaluation of unpleasant odor suppression ability (skatole), panel of 20 persons. The conditions noted are these: for Skatole strength: average rating of 20 persons, scale 0 to 10, unpleasant odor alone rated 8, 10 μL skatole diluted 100-fold plus 1 μL test substance, 1 hour at room temperature; for Effect of suppressing the unpleasant odors (in words): unpleasant odors = skatole or indole. It counts as in vivo, human. Here is the method:
as §1

For experiment [2], the system named is HEK293T cells in which OR2L3 was not expressed (Mock). Put plainly: Mock test, luciferase reporter gene assay using cells in which OR2L3 was not expressed. It counts as cell-based, human. Here is the method:
as §2
(§3) After removing the culture medium, 50 μL of CD293 medium (gibco) (20 μM L-glutamine added) including measured concentration of an aroma compound as a sample was added to each well, and stimulation was performed for 3 hours. After that, the luciferase activity was measured according to the directions for use of Dual-Luciferase Reporter Assay System (Promega). The response strength of the olfactory receptor was expressed by the Fold Increase value, which is obtained by dividing the luciferase activity generated by stimulation of the aroma compound by the luciferase activity generated in the test system not including the aroma compound.
(§4) Responses of the olfactory receptor OR2L3 to skatole, indole, α-terpineol, 4-terpineol or p-methylacetophenone as a typical example of the unpleasant odor-causing substance were measured with various concentrations by means of luciferase reporter gene assay. […] Meanwhile, in the Mock test (using cells in which OR2L3 was not expressed), no response was shown. That is, it was shown that OR2L3 specifically responds to the respective unpleasant odor-causing substances.

Experiment [3] has as its target T1, olfactory receptor OR2L3. Description: Luciferase reporter gene assay: response of olfactory receptor OR2L3 to unpleasant odor-causing substance. It counts as cell-based. The conditions noted are these: various concentrations; HEK293T cells expressing OR2L3; FIGS. 1 to 5. How it is done:
A human olfactory receptor gene was obtained by cloning according to the PCR method using Human Genomic DNA: Female (Promega) based on the sequence information registered in GenBank. The N-terminal 20 amino acid residues of bovine rhodopsin were incorporated into a pME18S vector, and the obtained human olfactory receptor gene was further incorporated downstream thereof, thereby obtaining a human olfactory receptor gene expression vector.
as §2, §3, §4

As for `CC(=CCC1CC=C(C)C1(C)C)CO` (stereo not shown) [2-methyl-4-(2,2,3-trimethyl-3-cyclopentenyl)-2-buten-1-ol], the Indole strength in the experiment with indole odor is listed as 4.1. At olfactory receptor OR2L3 [1], the “Effect of suppressing the response of OR2L3 to indole” value (“Effect … to indole” for short) is given as “concentration-dependently reducing” and the “Effect of suppressing the response of OR2L3 to skatole” value (“Effect … to skatole” for short) is on record as “concentration-dependently reducing”. For the same molecule, the Skatole strength in the experiment on skatole odor was 3.6. Further, the “Effect of suppressing the unpleasant odors (in words)” value (from here on “Effect … (in words)”) with skatole odor (sensory evaluation) is given as “suppress”.

`c1ccc2[nH]ccc2c1` [indole]: the “Response in the Mock test” value in experiment [2] was “no response”. For the same molecule, the “Response of the olfactory receptor OR2L3 (Fold Increase)” value (shortened to “Response … (Fold Increase)”) on olfactory receptor OR2L3 [3] is given as “concentration-dependent responses”.

On to `CCOC(=O)C(C)C(C)S` (stereo not shown) [Ethyl 3-mercapto-2-methylbutyrate], for which the Indole strength in the experiment on indole odor is reported as 3.3. At olfactory receptor OR2L3 [1], the “Effect … to indole” value was “concentration-dependently reducing” and the “Effect … to skatole” value is given as “concentration-dependently reducing”. Further, in the experiment with skatole odor, the Skatole strength came out at 3.0. Besides, the “Effect … (in words)” value with skatole odor (sensory evaluation) is “suppress”.

For the molecule `CC(=O)c1ccc(C)cc1` [p-methylacetophenone], the “Response in the Mock test” value in experiment [2] was “no response”. In addition, the “Response … (Fold Increase)” value at olfactory receptor OR2L3 [3] is listed as “concentration-dependent responses”.

Turning to `CC/C=C\CCOC(=O)CCCCC` [cis-3-hexenyl hexanoate, reference compound], the “Effect … to skatole” value at olfactory receptor OR2L3 [1] is reported as “concentration-dependently reducing”.

Turning to `CC(c1ccccc1)C1CC1C(C)(C)O` (stereo not shown) [Dimethyl-2-(1-phenylethyl)cyclopropylmethanol], in the experiment with indole odor, the Indole strength is given as 2.4. Besides, the Skatole strength with skatole odor is 2.5. For the same molecule, in the experiment on skatole odor (sensory evaluation), the “Effect … (in words)” value is reported as “suppress”.

As to `O=C1CCCC=CCCCCCCCCCC1` [5-cyclohexadecenone], the Indole strength in the experiment with indole odor was 3.6. In the experiment with skatole odor, the Skatole strength is 4.2. Besides, in the experiment with skatole odor (sensory evaluation), the “Effect … (in words)” value is given as “suppress”.

On to `CC1CCC(C(C)(C)S)C(=O)C1` (stereo not shown) [p-mentha-8-thio1-3-one, p-mentha-8-thiol-3-one], for which the Indole strength in the experiment with indole odor was determined as 3.7. Moreover, in the experiment with skatole odor, the Skatole strength worked out at 3.9. The “Effect … (in words)” value with skatole odor (sensory evaluation) is recorded as “suppress”.

In the case of `CC(C)(C)C1CCC(O)CC1` (stereo not shown) [4-t-butyleyclohexanol, 4-t-butylcyclohexanol, reference compound], the Indole strength with indole odor worked out at 6.0. In addition, on olfactory receptor OR2L3 [1], the “Effect … to skatole” value is reported as “did not suppress”. Besides, the Skatole strength with skatole odor is given as 6.3.

With `CCCCCCOC(=O)c1ccccc1O` [Hexyl salicylate, hexyl salicylate, reference compound], the Indole strength in the experiment on indole odor is given as 6.7. Besides, the “Effect … to skatole” value on olfactory receptor OR2L3 [1] is reported as “did not suppress”. Also, the Skatole strength in the experiment on skatole odor is listed as 6.9.

Methyl fenchol: in the experiment with indole odor, the Indole strength is 3.1. Moreover, the “Suppression of the strength of indole odor (in words)” value in the experiment with indole odor (sensory evaluation) is on record as “suppressed”. Besides, on olfactory receptor OR2L3 [1], the “Effect … to skatole” value is listed as “suppresses”. In addition, in the experiment with skatole odor, the Skatole strength was 3.3. In addition, the “Suppression of the strength of skatole odor (in words)” value in the experiment with skatole odor (sensory evaluation) is reported as “significantly suppressed”.

On to `CC1=CCC(C(C)(C)O)CC1` (stereo not drawn) [α-terpineol], for which, in experiment [2], the “Response in the Mock test” value is on record as “no response”. Besides, the “Response … (Fold Increase)” value at olfactory receptor OR2L3 [3] is recorded as “concentration-dependent responses”.

For `CC1=CCC(O)(C(C)C)CC1` (stereo not shown) [4-terpineol], the “Response in the Mock test” value in experiment [2] is on record as “no response”. Besides, the “Response … (Fold Increase)” value at olfactory receptor OR2L3 [3] is “concentration-dependent responses”.

In the case of `CCCC(O)CCC1C(C)CCCC1(C)C` (stereo not shown) [1-(2,2,6-trimethylcyclohexyl)hexan-3-ol], in the experiment with indole odor, the Indole strength came out at 3.9. Also, at olfactory receptor OR2L3 [1], the “Effect … to indole” value is on record as “concentration-dependently reducing” and the “Effect … to skatole” value is “concentration-dependently reducing”. Further, the Skatole strength in the experiment with skatole odor is given as 4.0. For the same molecule, the “Effect … (in words)” value with skatole odor (sensory evaluation) is reported as “suppress”.

In the case of `Cc1c[nH]c2ccccc12` [skatole], in experiment [2], the “Response in the Mock test” value is on record as “no response”. The “Response … (Fold Increase)” value at olfactory receptor OR2L3 [3] is “concentration-dependent responses”.
